Measurements reported in US10835500B2, “Medicament for accelerated wound healing” (Symrise AG, priority 2014, dated 2020).

How the values were obtained:
HaCaT cells = assay: In vitro wound scratch assay, HaCaT cells; assay type: cell-based, human; conditions: for faster closing of the scratch: HaCaT cells, 500 μM, observed for two days
From the text: The MAP kinases p38 and ERK1/2 are often associated with increased proliferation and migration in epidermal wound healing. For this reason, in a further physiological experiment, the effect of Sandalore® on “wound healing” of a confluent cell layer of HaCaT cells or primary keratinocytes was investigated. For this purpose, the wound scratch assay was used, which is an established in vitro method for initial investigations of wound healing processes in keratinocytes.
In order to investigate the role of the OR2AT4 receptor in this effect, a test was conducted to determine whether the two antagonists Oxyphenylon and Phenirat could again reduce the “wound healing” increased by Sandalore®. For this purpose, Sandalore® was mixed with one of the antagonists each in the same ratio, and the effect on “wound healing” of the HaCaT cells was again observed for 48 hours. […] The two antagonists alone had no effect on the “wound healing” (FIG. 18d). The role of the MAP kinases p38 and ERK1/2 was investigated by means of specific inhibitors of the kinases. For p38 MAPK, the […] SB203580 was used, and for ERK1/2 MAPK, the […] U0126 was used. […] The two inhibitors alone had no effect on the wound healing (FIG. 18d).
Effect of Sandalore® stimulation on human keratinocytes in an in vitro “wound healing” assay. Investigation of the “wound healing rate” of A) primary keratinocytes and B) HaCaT cells by means of a wound scratch assay in the presence of Sandalore® (500 μM) or 0.1% DMSO as a control. Left: Transmitted light images of the “wound” observed at various times. The growth margin of the cells was surrounded in black. Scale: 200 μm. Right: Quantitative evaluation of the wound scratch assay. The areas of the wounds were measured and compared to the initial wound (0 h). Mean values including standard error. Mann-Whitney U test; n=4 experiments. *: p<0.05; ***: p<0.001. C) Wound scratch assay in the presence of Sandalore® (500 μM) and one of the antagonists Oxyphenylon (500 μM) or Phenirat (500 μM) respectively, the p38 MAPK inhibitor 5B203580 (10 μM), or the ERK1/2 MAPK inhibitor U0126 (10 μM). The measured wound areas of the treated cells (after 48-hour stimulation) were compared to the control (0.1% DMSO). Mean values including standard error. Kruskal-Wallis test with multiple comparison; n=3 experiments. *: p<0.05. D) Controls for the wound scratch assay with Oxyphenylon (500 μM), Phenirat (500 μM), 5B203580 (10 μM), or U0126 (10 μM) carried out under C). The measured wound areas of the treated cells were compared to the control (0.1% DMSO). Mean value included.

[1] = biological target: T1, recombinantly expressed OR2AT4 (Homo sapiens, UniProt A6NND4); assay: Calcium imaging of transiently OR2AT4-transfected Hana3A cells; assay type: cell-based; conditions: for agonist or antagonist to heterologously expressed OR2AT4: summary of calcium imaging and luciferase results; for response rate of the Hana3A cells relative to the Ringer control: 1 mM odorant, 20 s stimulation, OR2AT4-transfected Hana3A cells
T1 construct: expressed in transfected cells; host or cells: Hana3A cells, transient transfection with pcDNA3-OR2AT4 by the calcium phosphate method
T1 sequence (A6NND4 1-320): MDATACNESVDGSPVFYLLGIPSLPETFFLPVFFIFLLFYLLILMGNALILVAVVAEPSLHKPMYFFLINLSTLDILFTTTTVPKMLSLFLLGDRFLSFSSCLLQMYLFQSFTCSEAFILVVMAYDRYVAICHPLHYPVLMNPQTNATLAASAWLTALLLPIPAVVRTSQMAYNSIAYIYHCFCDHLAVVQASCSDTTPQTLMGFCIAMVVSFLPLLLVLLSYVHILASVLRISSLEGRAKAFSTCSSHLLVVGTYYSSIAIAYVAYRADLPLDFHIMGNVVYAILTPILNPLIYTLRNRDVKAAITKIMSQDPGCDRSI
Method: Hana3A cells expressing stable endogenous olfactory transduction factors, which specifically target the incorporation of ORs into the cell membrane and thus improve activation capacity, were used as a heterologous expression system. Moreover, the 20 first N-terminal amino acids of rhodopsins (Rho-tag) were added before the N-terminus of the coding sequence of the OR, also in order to support heterologous expression.
A method established at the Department of Cell Physiology of Ruhr University Bochum for deorphanization studies is calcium imaging, in which activation of an OR by an odorant is visualized by a change in the intracellular calcium concentration of transfected cells using a fluorescent dye [cf. Wetzel et al. in: J. Neurosci. 19, pp. 7426-7433 (1999); Spehr et al. in: Science 299, pp. 2054-2058 (2003); Neuhaus et al. in: J. Biol. Chem. 284, pp. 16218-16225 (2009)]. In this method, the Hana3A cells are briefly (20 s) stimulated with an odorant and selected for odorant screenings of high concentrations (up to 1 mM) in order to confirm activation of ORs weakly expressed in Hana3A cells.
The activation of OR2AT4 by Sandalore® was first investigated by the calcium imaging method.
Odorants can not only activate a receptor, but can also act as antagonists to an OR.
Determination of receptive field of recombinantly expressed OR2AT4. […] As a control, untransfected Hana3A cells were simulated with Sandalore®. 100 μM of ATP was used at the end of each measurement as a positive control stimulus. […] The mean response rate including standard error of the cells is shown relative to the Ringer control. […] Isobornyl.: isobornyl cyclohexanol; S. öl: sandalwood oil. Kruskal-Wallis test with multiple comparison. *: p<0.05. […] Significance was determined between Hana3A cells transfected with OR2AT4-pcDNA3 and pcDNA3 without an insert. The dots show mean normalized luciferase-activity including standard error. Mann-Whitney U test; n=3 experiments. *: p<0.05; **: p<0.01; ***: p<0.001.
Antagonists of recombinantly expressed OR2AT4. […] 100 μM of ATP was used at the end of each measurement as a positive control stimulus. […] The mean response rate including standard error of the cells is shown relative to the Ringer control. Number of measurements: Ringer (23), Sandalore® (22), Sandalore®+dimetol (11), dimetol (11), Phenirat (14), Sandalore®+Phenirat (22), Oxyphenylon (12), and Sandalore®+Oxyphenylon (20). S: Sandalore®. Kruskal-Wallis test with multiple comparison. *: p<0.05.

Row | SMILES | Sandalore-increased wound healing on coincubation (HaCaT cells; HaCaT, 48 hours, Sandalore 500 μM + antagonist 500 μM or inhibitor 10 μM) | effect of the substance alone on wound healing (HaCaT cells; HaCaT, antagonist 500 μM or inhibitor 10 μM alone) | effect on Sandalore-induced calcium signals in coapplication ([1]; coapplication with Sandalore 1:1, 1 mM respectively) | effect of the odorant alone on the Hana3A cells ([1]; odorant alone, 1 mM) | agonist or antagonist to heterologously expressed OR2AT4 [1] | faster closing of the scratch (HaCaT cells) | response rate of the Hana3A cells relative to the Ringer control [1] | agonist or antagonist to heterologously expressed OR2AT4 ([1]; listed as Brahmanol) | agonist or antagonist to heterologously expressed OR2AT4 ([1]; listed as Sandalore)
1 | CC(=O)CCc1ccc(O)cc1 [Oxyphenylon] | reduced “wound healing” to the normal level | no effect | significantly reduced | no effect | antagonists | – | – | – | –
2 | CC1=CCC(CCC(C)CO)C1(C)C (stereo not shown) [Brahmanol®] | – | – | – | – | agonists | 26% | increased response rate in calcium imaging experiments, although the increase was not significant | only agonists | –
3 | CC1=CCC(CCC(C)C(C)O)C1(C)C (stereo not shown) [Sandalore®] | – | – | – | – | agonists | 26% | significantly increased response rate | – | only agonists
